Source: US9730937B2, “RAF kinase modulator compounds and methods of use thereof” (AMBIT BIOSCIENCES CORPORATION, priority 2008, dated 2017)
Read-outs that look alike come from different tables or passages of the source.

Legend:
mutant BRAF kinase = mutant BRAF kinase (Homo sapiens (Human), UniProt P15056, V600E); conditions: read-out: BRAF V600E Kd, class symbols
[1] = test system: panel of 290 distinct kinases (321 in the larger panel), excluding mutant variants; conditions: kinase selectivity score, class symbols
[2] = value marked * (larger kinase panel)

Chain of mutant BRAF kinase (P15056 whole entry V600E): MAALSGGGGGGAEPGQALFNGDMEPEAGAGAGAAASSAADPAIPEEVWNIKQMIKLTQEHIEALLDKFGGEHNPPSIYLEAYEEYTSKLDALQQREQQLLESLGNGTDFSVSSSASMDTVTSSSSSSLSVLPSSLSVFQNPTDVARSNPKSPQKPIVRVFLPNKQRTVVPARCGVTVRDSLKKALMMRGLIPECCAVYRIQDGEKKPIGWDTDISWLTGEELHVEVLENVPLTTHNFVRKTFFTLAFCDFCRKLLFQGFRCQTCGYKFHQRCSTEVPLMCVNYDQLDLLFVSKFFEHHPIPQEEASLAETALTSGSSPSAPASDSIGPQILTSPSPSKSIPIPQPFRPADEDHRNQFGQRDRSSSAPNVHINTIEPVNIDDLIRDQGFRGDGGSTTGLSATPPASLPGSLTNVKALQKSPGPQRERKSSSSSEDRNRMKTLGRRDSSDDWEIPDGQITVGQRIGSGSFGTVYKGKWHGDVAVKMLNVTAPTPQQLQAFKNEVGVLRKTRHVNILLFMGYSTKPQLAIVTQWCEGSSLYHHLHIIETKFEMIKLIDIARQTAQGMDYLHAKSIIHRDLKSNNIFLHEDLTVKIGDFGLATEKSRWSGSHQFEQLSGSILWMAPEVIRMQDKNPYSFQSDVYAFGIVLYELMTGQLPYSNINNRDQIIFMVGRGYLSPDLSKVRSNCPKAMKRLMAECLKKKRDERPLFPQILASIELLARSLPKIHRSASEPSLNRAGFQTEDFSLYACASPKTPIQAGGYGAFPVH

Row | SMILES | Kd (mutant BRAF kinase) [nM] | S35 ([1]; 290 distinct kinases) | S35 [1, 2]
1 | COc1cc2ncnc(Oc3cccc(NC(=O)Nc4cc(C(C)(C)C)on4)c3)c2cc1OCCCN1CCC(CO)CC1 [Ex 24, 1-(5-tert-butylisoxazol-3-yl)-3-(3-(6-(3-(4-(hydroxymethyl)piperidin-1-yl)propoxy)-7-methoxyquinazolin-4-yloxy)phenyl)urea] | < 250 | D (D > 0.40) | 
2 | COc1cc2ncnc(Oc3cccc(NC(=O)Nc4cc(C(C)(C)C)on4)c3)c2cc1OCCCN1CCN(S(C)(=O)=O)CC1 [Ex 25, 1-(5-tert-butylisoxazol-3-yl)-3-(3-(7-methoxy-6-(3-(4-(methylsulfonyl)piperazin-1-yl)propoxy)quinazolin-4-yloxy)phenyl)urea] | < 250 | D (D > 0.40) | 
3 | COc1cc2c(Oc3cccc(NC(=O)Nc4cc(C(C)(C)C)on4)c3)ncnc2cc1OCCCN1CCOCC1 [Ex 27, 1-(5-tert-butylisoxazol-3-yl)-3-(3-(6-methoxy-7-(3-morpholinopropoxy)quinazolin-4-yloxy)phenyl)urea] | < 250 | D (D > 0.40) | 
4 | COc1cc2c(Oc3cccc(NC(=O)Nc4cc(C(C)(C)C)on4)c3)ncnc2cc1OCCCN1CCC(CO)CC1 [Ex 29] | < 250 | D (D > 0.40) | 
5 | COc1cc2c(Oc3cccc(NC(=O)Nc4cc(C(C)(C)C)on4)c3)ncnc2cc1OCCCN1CCC(O)C1 (stereo not drawn) [Ex 31, 1-(5-tert-butyl-isoxazol-3-yl)-3-(3-{7-[3-(3-hydroxy-pyrrolidin-1-yl)-propoxy]-6-methoxy-quinazolin-4-yloxy}-phenyl)-urea] | < 250 | D (D > 0.40) | 
6 | COc1cc2c(Oc3cccc(NC(=O)Nc4cc(C(C)(C)C)on4)c3)ncnc2cc1OCCCN1CCN(S(C)(=O)=O)CC1 [Ex 32, 1-(5-tert-butylisoxazol-3-yl)-3-(3-(6-methoxy-7-(3-(4-(methylsulfonyl)piperazin-1-yl)propoxy)quinazolin-4-yloxy)phenyl)urea] | < 250 | D (D > 0.40) | 
7 | COc1cc2c(Oc3cccc(NC(=O)Nc4cc(C(C)(C)C)on4)c3)ncnc2cc1OCCCN1CC[C@H](O)C1 [Ex 33, (S)-1-(5-tert-butylisoxazol-3-yl)-3-(3-(7-(3-(3-hydroxypyrrolidin-1-yl)propoxy)-6-methoxyquinazolin-4-yloxy)phenyl)urea] | < 250 |  | D* (D > 0.40)
8 | COc1cc2c(Oc3cccc(NC(=O)Nc4cc(C(C)(C)C)on4)c3)ncnc2cc1OCCCN1CC[C@@H](O)C1 [Ex 34, (R)-1-(5-tert-Butylisoxazol-3-yl)-3-(3-(7-(3-(3-hydroxypyrrolidin-1-yl)propoxy)-6-methoxyquinazolin-4-yloxy)phenyl)urea] | < 250 |  | D* (D > 0.40)
9 | COc1cc2c(Oc3cccc(NC(=O)Nc4cc(C(C)(C)C)on4)c3)ncnc2cc1OCCN1CCOCC1 [Ex 35, 1-(5-tert-butylisoxazol-3-yl)-3-(3-(6-methoxy-7-(2-morpholinoethoxy)quinazolin-4-yloxy)phenyl)urea] | < 250 | C (0.20 < C ≦ 0.40) | 
10 | COc1cc2c(Oc3cccc(NC(=O)Nc4cc(C(C)(C)C)on4)c3)ncnc2cc1OCCN1CCN(C)CC1 [Ex 36, 1-(5-tert-butylisoxazol-3-yl)-3-(3-(6-methoxy-7-(2-(4-methylpiperazin-1-yl)ethoxy)quinazolin-4-yloxy)phenyl)urea] | < 250 | C (0.20 < C ≦ 0.40) | 
11 | COc1cc2c(Oc3cccc(NC(=O)Nc4cc(C(C)(C)C)on4)c3)ncnc2cc1OCCN1CCC(CO)CC1 [Ex 37, 1-(5-tert-butyl-isoxazol-3-yl)-3-(3-{7-[2-(4-hydroxymethyl-piperidin-1-yl)-ethoxy]-6-methoxy-quinazolin-4-yloxy}-phenyl)-urea] | < 250 | C (0.20 < C ≦ 0.40) | 
12 | COc1cc2c(Oc3cccc(NC(=O)Nc4cc(C(C)(C)C)on4)c3)ncnc2cc1OCCN1CCN(CCO)CC1 [Ex 38, 1-(5-tert-butylisoxazol-3-yl)-3-(3-(7-(2-(4-(2-hydroxyethyl)piperazin-1-yl)ethoxy)-6-methoxyquinazolin-4-yloxy)phenyl)urea] | < 250 | D (D > 0.40) | 
